According to patent US11807627B2, “Morphic forms of complement factor D inhibitors” (priority 2018, dated 2023):
Converted amounts (≈) assume the structure as drawn.

Legend:
[1] = Compression of Form A (2.5 KN, 5.0 KN); format: physicochemical; conditions: initial and repeat
Description: Compound 3 Form A material was compressed using a specac press. Approximately 125 mg of Compound 3 Form A was weighed into a 20 mL glass vial. The material was then transferred into an IR die and pressed to 2.5 KN for approx. 5 seconds. The resulting material was (ground lightly to break the disk that was returned and) analyzed by XRPD and PLM. The material was then placed back into the die and pressed to 5.0 KN (for approx. 5 seconds). The resulting material was ground lightly to break the disk that was returned and analyzed by XRPD and PLM. The procedure detail was repeated, using separate batches of solid for 2.5 KN and 5.0 KN experiments. XRPD analysis and PLM analysis was completed on the material returned after pressing. All samples returned Form A material by XRPD and consisted of small birefringent particles with no clear morphology by PLM (FIG. 35A-FIG. 35C).

[2] = pH experiments and SIF/SGF/FaSSIF/FeSSIF solubility (Examples 3 and 4); format: physicochemical
[3] = Dose number and BCS classification; format: physicochemical
[4] = Caco2 permeability and efflux ratio; format: in vitro ADME; conditions: human, Caco-2; Caco2; read-out: Efflux ratio (B-A/A-B)
Caco2 = Caco2 permeability and efflux ratio; format: in vitro ADME; conditions: A-B
[5] = Enabling form study: solubility from RT slurry in solvents (Table 2); format: physicochemical; conditions: organic solvent or mixture, thermodynamic from solid
Description: A solution of Compound 3 and solvent/solvent system of interest was prepared. Solids persisted in solution. The samples were placed onto a stir plate at ambient (RT) or elevated (ET) temperatures. The samples were monitored to ensure that solids persisted during the slurry process. The solids were collected via vacuum filtration and dried under ambient conditions.
An enabling form study was also carried out (Table 2).

[6] = Compression study (25 kN, 50 kN; Example 13); format: physicochemical
Description: A mixture of Form A ±Form B and Form B were compressed using a specac IR die press. A total of approximately 100 mg (50 mg A ±50 mg B and 100 mg B) were weighed into separate 2 mL glass vials. The solids were then placed into the IR dies and pressed under 25 kN and 50 kN for about 10-15 seconds. After pressing to 25 kN, material was removed from the dies and ground slightly. A sub-sample was taken and XRPD analysis was collected. Material was then placed back into the dies and pressed to 50 kN. After pressing to 50 kN, material was removed from the dies and ground slightly before collecting XRPD analysis. Both samples observed a small color change from white to off-white after being pressed to 25 kN. […] No single form was observed when compressing a mixture of Forms A and form B material, but a decrease in crystallinity was observed when exerting 50 kN on the mixture.

[7] = X-ray powder diffraction (XRPD); format: physicochemical; conditions: Table 27A
Description: Most XRPD patterns were collected with a PANalytical X′Pert PRO MPD diffractometer using an incident beam of Cu Kα radiation produced using a long, fine-focus source and a nickel filter. The diffractometer was configured using the symmetric Bragg-Brentano geometry. Prior to the analysis, a silicon specimen (NIST SRM 640e) was analyzed to verify the observed position of the Si 111 peak is consistent with the NIST-certified position. A specimen of the sample was prepared as a thin, circular layer centered on a silicon zero-background substrate. Antiscatter slits (SS) were used to minimize the background generated by air. Soller slits for the incident and diffracted beams were used to minimize broadening from axial divergence. Diffraction patterns were collected using a scanning position-sensitive detector (X′Celerator) located 240 mm from the sample and Data Collector software v. 2.2b.
A few XRPD patterns were collected with a PANalytical X′Pert PRO MPD diffractometer using an incident beam of Cu radiation produced using an Optix long, fine-focus source. […] Prior to the analysis, a silicon specimen (NIST SRM 640e) was analyzed to verify the observed position of the Si 111 peak is consistent with the NIST-certified position. A specimen of the sample was sandwiched between 3-μm-thick films and analyzed in transmission geometry. […]

CC(=O)c1nn(CC(=O)N2[C@H](C(=O)Nc3nc(Br)ccc3C)C[C@@]3(C)C[C@@H]23)c2ccc(-c3cnc(C)nc3)cc12 [Compound 3 Form A]
Compression: XRPD ([1]; 2.5 KN): Form A
Compression: XRPD ([1]; 5.0 KN): Form A

CC(=O)c1nn(CC(=O)N2[C@H](C(=O)Nc3nc(Br)ccc3C)C[C@@]3(C)C[C@@H]23)c2ccc(-c3cnc(C)nc3)cc12 [Compound 3, (1R,3S,5R)-2-(2-(3-acetyl-5-(2-methylpyrimidin-5-yl)-1H-indazol-1-yl)acetyl)-N-(6-bromo-3-methylpyridin-2-yl)-5-methyl-2-azabicyclo[3.1.0]hexane-3-carboxamide]
pH Experiments (solubility) ([2]; 1.2 pH): 389.37 μg/mL
pH Experiments: stability in the medium ([2]; 1.2 pH): degrades
pH Experiments (solubility) ([2]; 4.0 pH): 56.68 μg/mL
pH Experiments (solubility) ([2]; 6.0 pH): 54.60 μg/mL
pH Experiments (solubility) ([2]; 7.4 pH): 53.41 μg/mL
solubility ([2]; FaSSIF, read-out: FaSSIF solubility): 75.4 µg/mL (≈ 0.125 mM)
solubility ([2]; FeSSIF, read-out: FeSSIF solubility): 153 µg/mL (≈ 0.254 mM)
pH Experiments (solubility) ([2]; SGF pH = 1.6): 96.35 μg/mL
pH Experiments (solubility) ([2]; SIF pH = 6.5): 80.77 μg/mL
BCS class [3]: BCS II compound
Dose Number ([3]; for 100 mg dose): Dose Number for 100 mg dos 3-7
efflux ratio [4]: 2.2
Caco2: A-B (Caco2): Caco2: A-B ~17 × 10^−6 cm/s
solubility ([5]; ethyl acetate, EtOAc): ~14500 µg/mL (≈ 24.1 mM)
solubility ([5]; isopropanol, IPA): ~5600 µg/mL (≈ 9.29 mM)
solubility ([5]; MTBE): ~1200 µg/mL (≈ 1.99 mM)
solubility ([5]; Toluene): ~13600 µg/mL (≈ 22.6 mM)

CC(=O)c1nn(CC(=O)N2[C@H](C(=O)Nc3nc(Br)ccc3C)C[C@@]3(C)C[C@@H]23)c2ccc(-c3cnc(C)nc3)cc12 [Form B]
Form change under compression (XRPD) ([6]; 25 kN and 50 kN): did not change under pressure
XRPD Results ([6]; Pressure Exerted 25 kN): Form B
XRPD Results ([6]; Pressure Exerted 50 kN): Form B
XRPD [7]: Form B
